Data taken from patent US11739064B2, “HDAC inhibitors and therapeutic methods using the same” (THE BOARD OF TRUSTEES OF THE UNIVERSITY OF ILLINOIS, priority 2015, dated 2023).
pIC50: −log10 of the molar value.

Assays:
HDAC2 = HDAC2 (Homo sapiens, UniProt Q92769); assay: In vitro HDAC inhibition assay, HDAC2; format: biochemical
Human HDAC6 = biological target: T1, Human HDAC6 (Homo sapiens, UniProt Q9UBN7); assay: In vitro HDAC inhibition assay, HDAC6; format: biochemical; settings: read-out: HDAC isoform IC50, HDAC6
T1 construct: Full length with N-terminal GST tag, MW=159 kDa; GST (N); host or cells: baculovirus expression system, Sf9 cells
T1 sequence (Q9UBN7 1-1215): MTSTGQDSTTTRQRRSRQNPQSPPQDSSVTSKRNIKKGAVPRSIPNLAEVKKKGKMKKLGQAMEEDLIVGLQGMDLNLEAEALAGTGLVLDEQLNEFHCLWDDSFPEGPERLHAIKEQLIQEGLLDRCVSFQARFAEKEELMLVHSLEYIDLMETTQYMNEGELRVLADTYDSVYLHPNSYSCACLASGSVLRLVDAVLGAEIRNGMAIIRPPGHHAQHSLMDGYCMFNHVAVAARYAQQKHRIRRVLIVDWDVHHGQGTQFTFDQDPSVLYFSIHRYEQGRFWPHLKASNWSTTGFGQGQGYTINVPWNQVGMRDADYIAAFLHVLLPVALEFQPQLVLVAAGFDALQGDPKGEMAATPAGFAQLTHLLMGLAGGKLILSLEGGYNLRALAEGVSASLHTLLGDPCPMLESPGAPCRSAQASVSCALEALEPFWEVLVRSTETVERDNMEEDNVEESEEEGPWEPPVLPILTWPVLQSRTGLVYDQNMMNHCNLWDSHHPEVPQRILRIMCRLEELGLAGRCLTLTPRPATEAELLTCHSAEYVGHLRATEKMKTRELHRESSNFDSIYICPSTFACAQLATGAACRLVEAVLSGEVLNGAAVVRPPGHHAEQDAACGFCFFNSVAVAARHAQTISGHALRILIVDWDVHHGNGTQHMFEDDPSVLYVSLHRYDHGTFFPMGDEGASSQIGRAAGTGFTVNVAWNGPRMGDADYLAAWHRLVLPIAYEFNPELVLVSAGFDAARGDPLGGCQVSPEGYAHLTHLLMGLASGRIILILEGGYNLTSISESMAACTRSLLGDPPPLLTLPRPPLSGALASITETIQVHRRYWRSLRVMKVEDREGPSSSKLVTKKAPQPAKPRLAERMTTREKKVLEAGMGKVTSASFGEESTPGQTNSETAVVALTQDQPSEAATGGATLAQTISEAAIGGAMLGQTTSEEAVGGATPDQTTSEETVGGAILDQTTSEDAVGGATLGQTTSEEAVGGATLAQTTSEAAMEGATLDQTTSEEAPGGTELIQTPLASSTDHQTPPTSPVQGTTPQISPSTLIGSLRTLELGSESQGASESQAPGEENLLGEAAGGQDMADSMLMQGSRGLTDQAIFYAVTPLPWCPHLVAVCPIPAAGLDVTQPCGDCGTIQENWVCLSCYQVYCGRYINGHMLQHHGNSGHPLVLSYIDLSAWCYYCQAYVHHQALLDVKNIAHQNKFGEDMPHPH

HDAC10 = biological target: T2, HDAC10 (Homo sapiens, UniProt Q969S8); assay: In vitro HDAC inhibition assay, HDAC10; format: biochemical
T2 sequence (Q969S8 1-669): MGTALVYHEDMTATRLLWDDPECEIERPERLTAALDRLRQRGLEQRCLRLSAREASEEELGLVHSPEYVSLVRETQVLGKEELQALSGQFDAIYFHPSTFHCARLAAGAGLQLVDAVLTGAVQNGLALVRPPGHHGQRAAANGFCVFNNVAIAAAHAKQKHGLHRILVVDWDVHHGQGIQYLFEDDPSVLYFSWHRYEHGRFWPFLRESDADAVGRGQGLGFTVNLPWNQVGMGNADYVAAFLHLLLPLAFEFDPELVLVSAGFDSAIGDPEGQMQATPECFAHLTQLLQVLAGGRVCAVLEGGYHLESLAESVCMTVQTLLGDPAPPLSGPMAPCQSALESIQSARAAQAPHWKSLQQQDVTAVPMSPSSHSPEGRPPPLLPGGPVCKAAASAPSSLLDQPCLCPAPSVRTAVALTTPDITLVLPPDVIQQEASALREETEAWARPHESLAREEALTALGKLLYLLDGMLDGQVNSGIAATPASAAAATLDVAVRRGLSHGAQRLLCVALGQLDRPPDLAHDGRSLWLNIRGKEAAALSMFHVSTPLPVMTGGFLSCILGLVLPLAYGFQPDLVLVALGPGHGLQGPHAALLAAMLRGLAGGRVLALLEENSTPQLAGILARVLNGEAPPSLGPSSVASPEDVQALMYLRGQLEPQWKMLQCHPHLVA

HDAC7 = biological target: T3, HDAC7 (Homo sapiens, UniProt Q8WUI4); assay: HDAC isoform inhibition, HDAC7; format: biochemical
T3 sequence (Q8WUI4 1-952): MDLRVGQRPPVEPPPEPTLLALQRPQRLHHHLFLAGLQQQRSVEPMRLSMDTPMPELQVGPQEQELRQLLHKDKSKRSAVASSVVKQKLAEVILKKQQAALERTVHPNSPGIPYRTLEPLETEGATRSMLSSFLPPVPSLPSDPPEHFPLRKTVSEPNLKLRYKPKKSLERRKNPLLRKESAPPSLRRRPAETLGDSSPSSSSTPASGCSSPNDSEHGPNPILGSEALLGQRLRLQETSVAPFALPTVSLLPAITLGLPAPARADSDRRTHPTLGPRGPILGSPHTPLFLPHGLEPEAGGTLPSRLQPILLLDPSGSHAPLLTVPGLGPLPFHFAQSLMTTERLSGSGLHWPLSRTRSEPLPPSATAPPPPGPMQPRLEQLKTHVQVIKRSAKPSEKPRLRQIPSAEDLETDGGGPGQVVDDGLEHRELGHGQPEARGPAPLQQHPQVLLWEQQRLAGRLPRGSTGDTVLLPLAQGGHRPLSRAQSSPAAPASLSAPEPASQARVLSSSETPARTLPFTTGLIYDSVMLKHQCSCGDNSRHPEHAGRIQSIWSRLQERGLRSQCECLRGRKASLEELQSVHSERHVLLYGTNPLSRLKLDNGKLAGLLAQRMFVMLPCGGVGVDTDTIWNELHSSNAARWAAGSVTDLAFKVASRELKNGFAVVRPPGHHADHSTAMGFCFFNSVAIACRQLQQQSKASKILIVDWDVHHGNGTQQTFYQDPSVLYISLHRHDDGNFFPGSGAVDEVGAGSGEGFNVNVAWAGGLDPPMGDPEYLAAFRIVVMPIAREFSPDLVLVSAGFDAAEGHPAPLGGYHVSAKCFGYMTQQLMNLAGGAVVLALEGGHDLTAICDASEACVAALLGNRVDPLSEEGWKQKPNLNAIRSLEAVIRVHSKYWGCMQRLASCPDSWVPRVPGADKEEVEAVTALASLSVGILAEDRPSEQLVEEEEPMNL

L3.6pl = assay: In vitro growth inhibition (GI), MTS cell proliferation assay (Table 5), L3.6pl; format: cell-based; settings: Homo sapiens, 72 hours post-treatment

Chain of HDAC2 (Q92769 whole entry, canonical isoform): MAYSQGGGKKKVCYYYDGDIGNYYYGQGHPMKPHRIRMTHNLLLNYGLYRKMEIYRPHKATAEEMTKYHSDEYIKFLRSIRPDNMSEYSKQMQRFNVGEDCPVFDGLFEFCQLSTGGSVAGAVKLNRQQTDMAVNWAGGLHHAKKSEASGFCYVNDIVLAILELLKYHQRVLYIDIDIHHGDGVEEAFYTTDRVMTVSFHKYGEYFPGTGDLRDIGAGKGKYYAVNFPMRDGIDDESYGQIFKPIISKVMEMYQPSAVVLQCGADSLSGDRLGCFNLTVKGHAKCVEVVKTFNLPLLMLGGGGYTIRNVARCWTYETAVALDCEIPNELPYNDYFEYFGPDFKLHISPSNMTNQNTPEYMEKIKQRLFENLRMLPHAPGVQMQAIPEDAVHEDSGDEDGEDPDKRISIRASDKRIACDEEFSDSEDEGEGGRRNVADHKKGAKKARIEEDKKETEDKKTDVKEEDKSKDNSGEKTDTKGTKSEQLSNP

SMILES: CC(C)(C)OC(=O)Nc1ccc(-c2cc(C(=O)NCCc3cc(C(=O)NO)no3)no2)cc1 [Compound 6, (4-{3-[2-(3-Hydroxycarbamoyl-isoxazol-5-yl)-ethylcarbamoyl]-isoxazol-5-yl}-phenyl)-carbamic acid tert-butyl ester]
- Selectivity for HDAC6 (fold) over HDAC2 (HDAC2): 20500 fold
- pIC50 (HDAC2; NI = No inhibition at a concentration of 50 pM (footnote b), read-out: HDAC isoform IC50, HDAC2): 3.91
- pIC50 (Human HDAC6): 8.22
- Selectivity for HDAC6 (fold) over HDAC10 (HDAC10): >16000 fold
- pIC50 (HDAC10; NI = No inhibition at a concentration of 50 pM (footnote b), read-out: HDAC isoform IC50, HDAC10): < 4.00
- pIC50 (HDAC7): 3.98
- Selectivity for HDAC6 (fold) over HDAC7 (HDAC7): 17500 fold
- GI50 (L3.6pl): > 50 µM
